Source: patent EP4775209A1 (Ascentawits Pharmaceuticals, Ltd., priority 2023, dated 2025)

Key:
[1] = system: HuPrime® pancreatic cancer PA2637 subcutaneous xenograft model
Source text: For the experimental procedures and relevant evaluation indicators of the aforementioned solid tumor animal efficacy models, please refer to Examples 7, 8, and 9 in Patent Application 1, namely PCT/US2016/062114, with Publication No. WO2017/087428 (corresponding to Chinese Application CN201680044608.1, with Publication No. CN108290911B), Examples 3 and 4 in Patent Application 2, namely PCT/CN2021/078115, with Publication No. WO2022178821, and Research Literature 1. The aforementioned non-clinical animal efficacy models (PDX) mentioned in the present application are all similar to those in the aforementioned literatures, and the specific operation procedures thereof are not described herein again.
PA2637 is a HuPrime® xenograft model established from a pancreatic cancer tumor of a patient.
Efficacy was evaluated based on the relative tumor growth inhibition rate (TGI, %), and safety was evaluated based on animal body weight changes and mortality.

[2] = Toxicokinetics (D1+D8/21 Days) in monkeys; type: in vivo, cynomolgus monkeys; conditions: both sexes, cynomolgus monkey, in vivo, iv
[3] = system: HuPrime® pancreatic cancer PA1170 subcutaneous xenograft model; test: Pancreatic cancer PA1170 subcutaneous xenograft efficacy model; type: in vivo, BALB/c nude mice; conditions: for TGI (%): Day 30, P<0.05; for mean tumor volume: Day 30 after first administration
[4] = cited from earlier work
[5] = GLP repeated-administration toxicity study (D1+D8/21 Days) in rats; type: in vivo, Sprague-Dawley (SD) rats; conditions: intravenous bolus on Days 1, 8, 22, 29
Procedure: Rats developed test article-related, dose-dependent lesions at the injection sites and the distal ends of the tails. At the 10 mg/kg dose, there were mild and reversible changes in hematology and serum biochemistry parameters.

[6] = system: HuPrime® pancreatic cancer PA9451 subcutaneous xenograft model; test: Pancreatic cancer PA9451 subcutaneous xenograft efficacy model; type: in vivo, BALB/c nude mice; conditions: for TGI (%): Day 36, P<0.001; for mean tumor volume: Day 36 after first administration
[7] = system: human lung cancer (H460-GFP) subcutaneous CDX model; test: Human lung cancer CDX efficacy model (QW×2 regimen); type: in vivo, nude mice; conditions: QW×2, QW×2, I.V., P<0.01
Procedure: Images of tumor burden in mice were non-invasively collected twice a week by a Fluor Vivo Model 100 imaging system, and the mean value of tumor area in each group was calculated based on imaging analysis results. […] The data from this experiment are the data for the H460 model in Example 3-1 of the aforementioned Patent Application 2 (see Table 5 and Figure 5 of this application).

[8] = 1 mg/kg QD×5, 16 days off, QD×5
[9] = 2 mg/kg once weekly for 2 weeks

With C[C@H](OP(=O)(N1CC1)N1CC1)c1ccc([N+](=O)[O-])c(Oc2cccc(C(=O)N(C)C)c2)c1 [AST-3424] the tumor clearance ([1]; 1 mg/kg QD×5, 2 cycles, 6 mice per group) was “the tumor in one mouse was cleared”, the “tolerability (body weight changes and mortality)” value ([1]; 1 mg/kg QD×5, 2 cycles, no animal deaths, no apparent drug toxicity) was “well tolerated” and the “TGI (%)” value ([1]; Day 36 after first administration, AST-3424 1 mg/kg QD×5, 16 days off, QD×5 (P < 0.001), ifosfamide 60 mg/kg QD×5/week for 2 weeks (no statistical difference)) was 80.78%. It also gave a mean tumor volume ([1]; Day 36 after first administration, AST-3424 1 mg/kg QD×5, 16 days off, QD×5, ifosfamide 60 mg/kg QD×5/week for 2 weeks, vehicle 977.46) of 186.08 mm^3, a Vd [2] of 0.223 to 0.676 L/kg and a clearance [2] of 11.8 to 18.2 mL/min/kg. For the same compound, the “TGI (%)” value [3, 8] was 97.60%, the mean tumor volume ([3]; 1 mg/kg QD×5, 16 days off, QD×5, vehicle 1182.66) was 29.50 mm^3 and the “TGI (%)” value [3, 9] was 94.83%. The mean tumor volume [3, 9] was 64.50 mm^3, the “tolerability (body weight changes and mortality)” value ([3]; AST-3424 groups 1 mg/kg QD×5 and 2 mg/kg QW, no animal deaths, no apparent drug toxicity) was “well tolerated” and the T1/2 ([4]; after intravenous OBI-3424, US patients, parent drug and metabolite) was “approximately 0.4 hours”. For the same compound, the pharmacokinetic characteristics ([4]; doses ranging from 1 to 14 mg/m^2, minimal accumulation after repeated administration) was “linear pharmacokinetic characteristics”, the NOAEL ([5]; Sprague-Dawley, rat, in vivo, read-out: no-observed-adverse-effect level (NOAEL)) was 3 mg/kg and the “dose at which 10% of animals showed severe toxic reactions (STD10)” value [5] was 30 mg/kg. For the same compound, the “TGI (%)” value ([6]; 0.5 mg/kg QD×5, 16 days off, QD×5) was 91.77%, the mean tumor volume ([6]; 0.5 mg/kg QD×5, 16 days off, QD×5, vehicle 661.61) was 54.83 mm^3 and the “TGI (%)” value [6, 8] was 92.99%. The mean tumor volume [6, 8] was 46.05 mm^3, the “TGI (%)” value [6, 9] was 88.53% and the mean tumor volume [6, 9] was 76.78 mm^3. The “tolerability (body weight changes and mortality)” value ([6]; AST-3424 groups 0.5, 1 mg/kg QD×5 and 2 mg/kg QW, no animal deaths, no apparent drug toxicity) was “well tolerated”, the TGI ([7]; 0.625 mg/kg, 1-week off) was 60.2% and the TGI ([7]; 1.25 mg/kg, 1 week off) was 67.2%. For the same compound, the TGI ([7]; 2.5 mg/kg, 1 week off) was 88%.
